Test: accelerated stability tests
Assay type: physicochemical
Details: exposed to heat and/or humidity sources

CC(=O)NCCCS(=O)(=O)O [form B, calcium acamprosate]
stability of the polymorphic form in accelerated stability tests: does not alter

Reference: patent US20110182953A1, “P[…] OF CALCIUM ACAMPROSATE” (priority 2009, published 2011)
